Data from paper doi:10.1101/2023.09.01.555951v1 (biorxiv, 2023).
Residue numbers refer to the chain shown, from its start.

Assays:
[1] = biological target: T1, OpuAC (isolated SBD of OpuA) (Lactococcus lactis, UniProt Q7DAU8, K521C/S319C); assay: intrinsic tryptophan fluorescence titration; format: binding
T1 sequence (Q7DAU8 319-573 S319C/K521C): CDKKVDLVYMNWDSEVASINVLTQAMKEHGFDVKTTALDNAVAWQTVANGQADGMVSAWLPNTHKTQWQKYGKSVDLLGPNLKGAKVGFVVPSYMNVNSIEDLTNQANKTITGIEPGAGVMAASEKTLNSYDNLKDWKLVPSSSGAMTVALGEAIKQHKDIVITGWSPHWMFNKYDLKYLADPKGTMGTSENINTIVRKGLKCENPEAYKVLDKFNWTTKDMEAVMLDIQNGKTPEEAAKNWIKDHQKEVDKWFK

[2] = biological target: T2, OpuAC (isolated SBD of OpuA) (Lactococcus lactis, UniProt Q7DAU8); assay: intrinsic tryptophan fluorescence titration; format: binding
T2 sequence (Q7DAU8 319-573): T1 sequence (Q7DAU8 319-573 S319C/K521C) with C1S, C203K

C[N+](C)(C)CC(=O)[O-] [glycine betaine] showed a Kd [1] of 4.3 ± 0.4 µM and a Kd [2] of 4.4 ± 0.1 µM.
